# Measured values as given in patent US4409388A, “1,2,4-Triazole derivatives, and their use as antifertility agents” (Gruppo Lepetit S.p.A., priority 1978, dated 1983).
# Tests used:
# [1] = system: hamsters; assay: antifertility activity, oral route, pregnant hamsters; assay type: in vivo, Syrian golden hamsters; conditions: for reduction of live fetuses: oral dosage of 20 mg/Kg, hamsters
# Protocol: (§1) Representative experiments for assessing antifertility activity were carried out with female Syrian golden hamsters weighing 100 to 130 g. The animals were mated and the presence of sperm in the vagina was taken as evidence of mating. The day sperm was detected and considered day one of pregnancy, since in our laboratories and those of other investigators 90 to 100% of animals that mate as evidenced by vaginal sperm are pregnant.
# (§2) Pregnancy was later confirmed at the time of autopsy by presence of fetuses or implantation sites in the uterus.
# (§3) Even if an animal aborts the fetus, implantation scars still remain as evidence that the animal has been pregnant.
# The animals were autopsied on day 14 of pregnancy and the uteri were examined for evidence of pregnancy (implantation sites, fetal resorptions or live fetuses), hemorrage, and evidence of abnormalities of the uterus, placenta or fetuses. A compound was considered to be active if there was a reduction of live fetuses in at least 60% of the treated animals and the presence of implantation sites proves the animal to have been pregnant. […] The compounds were then studied for dose-activity relationships and the corresponding ED50 values i.e., 100% activity (absence of live fetuses) in 50% of the animals, were also determined. The following table reports the ED50 values of some representative compounds of the invention:
# Favorable results were also obtained by administering the compounds of the invention by oral route. The experiments for assessing this property were carried out on hamsters following the same procedure as above, with the obvious exception that the compounds were administered orally instead of subcutaneously.
# [2] = system: female Syrian golden hamsters; assay: post-coital/post-implantation antifertility activity, subcutaneous, pregnant hamsters; assay type: in vivo; conditions: days 4-8 of pregnancy; for activity according to the criteria (reduction of live fetuses in at least 60% of the treated animals): 10 mg/kg s.c. daily for 5 days, hamsters; for ED50: Mesocricetus auratus, sc, 120 h, s.c. hamsters, daily for 5 days, sesame oil, read-out: ED50 (100% activity, absence of live fetuses, in 50% of the animals)
# Protocol: as §1, §2, §3
# The animals were autopsied on day 14 of pregnancy and the uteri were examined for evidence of pregnancy (implantation sites, fetal resorptions or live fetuses), hemorrage, and evidence of abnormalities of the uterus, placenta or fetuses.
SMILES,"ED50 ([1]; Mesocricetus auratus, po, 120 h, p.o. hamsters, daily for 5 days, days 4-8 of pregnancy)",reduction of live fetuses [1],activity according to the criteria (reduction of live fetuses in at least 60% of the treated animals) [2],ED50 [2]
"COc1cccc(-c2n[nH]c(-c3ccccc3CO)n2)c1 [Example 1, 5-(2-hydroxymethylphenyl)-3-(3-methoxyphenyl)-1H-1,2,4-triazole]",10 mg/kg,about 60%,active,0.08 mg/kg
"COc1cccc(-c2nc(-c3ccccc3C=O)n[nH]2)c1 [Example 3, 2-[5-(3-methoxyphenyl)-1H-1,2,4-triazol-3-yl]benzaldehyde]",–,about 60%,active,0.1 mg/kg
